According to PubChem BioAssay (NCI):
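Each compound was tested at five concentrations against cells in 96-well plates for 48 hours. GI50 marks 50% less growth. TGI denotes the concentration required for complete inhibition of growth.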

Assays:
Experiment in all cases: growth of human tumour cells (NCI), 48 h
A498 renal = tested on: A498 renal
ACHN renal = tested on: ACHN renal
LOX IMVI melanoma = tested on: LOX IMVI melanoma
NCI-H226 lung = tested on: NCI-H226 lung
UO-31 renal = tested on: UO-31 renal
OVCAR-8 ovarian = tested on: OVCAR-8 ovarian
SNB-75 CNS = tested on: SNB-75 CNS
SR leukemia = tested on: SR leukemia
OVCAR-5 ovarian = tested on: OVCAR-5 ovarian
HCT-116 colon = tested on: HCT-116 colon
HCC-2998 colon = tested on: HCC-2998 colon
MDA-MB-435 = tested on: MDA-MB-435
SK-MEL-5 melanoma = tested on: SK-MEL-5 melanoma
NCI-H522 lung = tested on: NCI-H522 lung
MDA-MB-231 breast = tested on: MDA-MB-231 breast
UACC-257 melanoma = tested on: UACC-257 melanoma
HOP-92 NSCLC = tested on: HOP-92 NSCLC
OVCAR-4 ovarian = tested on: OVCAR-4 ovarian
CAKI-1 renal = tested on: CAKI-1 renal
T-47D breast = tested on: T-47D breast
U251 CNS = tested on: U251 CNS
IGROV1 ovarian = tested on: IGROV1 ovarian
SW-620 colon = tested on: SW-620 colon
HOP-62 NSCLC = tested on: HOP-62 NSCLC
786-0 renal = tested on: 786-0 renal
SK-OV-3 ovarian = tested on: SK-OV-3 ovarian
NCI/ADR-RES ovarian = tested on: NCI/ADR-RES ovarian
MCF7 breast = tested on: MCF7 breast
A549 NSCLC = tested on: A549 NSCLC
UACC-62 melanoma = tested on: UACC-62 melanoma
SF-295 CNS = tested on: SF-295 CNS
PC-3 prostate = tested on: PC-3 prostate
BT-549 breast = tested on: BT-549 breast
NCI-H460 lung = tested on: NCI-H460 lung
SF-539 CNS = tested on: SF-539 CNS
SF-268 CNS = tested on: SF-268 CNS
MOLT-4 leukemia = tested on: MOLT-4 leukemia
CCRF-CEM leukemia = tested on: CCRF-CEM leukemia
RPMI-8226 leukemia = tested on: RPMI-8226 leukemia
SNB-19 CNS = tested on: SNB-19 CNS
HCT-15 colon = tested on: HCT-15 colon
KM12 colon = tested on: KM12 colon
RXF 393 renal = tested on: RXF 393 renal
SN12C renal = tested on: SN12C renal
COLO 205 colon = tested on: COLO 205 colon
DU-145 prostate = tested on: DU-145 prostate
HL-60(TB) leukemia = tested on: HL-60(TB) leukemia
TK-10 renal = tested on: TK-10 renal
SK-MEL-28 melanoma = tested on: SK-MEL-28 melanoma
SK-MEL-2 melanoma = tested on: SK-MEL-2 melanoma
M14 melanoma = tested on: M14 melanoma
OVCAR-3 ovarian = tested on: OVCAR-3 ovarian
HS 578T breast = tested on: HS 578T breast
NCI-H23 lung = tested on: NCI-H23 lung

For Oc1ccc(Cl)cc1-c1cc(-c2ccc(Cl)cc2)n[nH]1, the GI50 (A498 renal) was 10.9 µM, the TGI (A498 renal) was 23.9 µM and the GI50 (ACHN renal) was 2.45 µM. For the same molecule, the TGI (ACHN renal) was 9.23 µM, the GI50 (LOX IMVI melanoma) was 2.02 µM and the TGI (LOX IMVI melanoma) was 5.65 µM. It also gave a GI50 (NCI-H226 lung) of 2.87 µM, a TGI (NCI-H226 lung) of 24.1 µM and a GI50 (UO-31 renal) of 1.38 µM. For the same molecule, the TGI (UO-31 renal) was 10.1 µM, the GI50 (OVCAR-8 ovarian) was 3.47 µM and the TGI (OVCAR-8 ovarian) was 14.1 µM. For the same molecule, the GI50 (SNB-75 CNS) was 1.44 µM, the TGI (SNB-75 CNS) was 10.8 µM and the GI50 (SR leukemia) was 0.577 µM. For the same molecule, the TGI (SR leukemia) was 12.3 µM, the GI50 (OVCAR-5 ovarian) was 9.55 µM and the TGI (OVCAR-5 ovarian) was 36.5 µM. It also gave a GI50 (HCT-116 colon) of 1.57 µM, a TGI (HCT-116 colon) of 2.99 µM and a GI50 (HCC-2998 colon) of 1.86 µM. The TGI (HCC-2998 colon) was 11.5 µM, the GI50 (MDA-MB-435) was 3.14 µM and the TGI (MDA-MB-435) was 14.2 µM. It also gave a GI50 (SK-MEL-5 melanoma) of 1.35 µM, a TGI (SK-MEL-5 melanoma) of 10.2 µM and a GI50 (NCI-H522 lung) of 3.26 µM. It also gave a TGI (NCI-H522 lung) of 12.9 µM, a GI50 (MDA-MB-231 breast) of 0.624 µM and a TGI (MDA-MB-231 breast) of 6.79 µM. For the same molecule, the GI50 (UACC-257 melanoma) was 9.92 µM, the TGI (UACC-257 melanoma) was 37.7 µM and the GI50 (HOP-92 NSCLC) was 1.18 µM. For the same molecule, the TGI (HOP-92 NSCLC) was 4.6 µM, the GI50 (OVCAR-4 ovarian) was 0.322 µM and the TGI (OVCAR-4 ovarian) was 5.7 µM. The GI50 (CAKI-1 renal) was 1.87 µM, the TGI (CAKI-1 renal) was 11.3 µM and the GI50 (T-47D breast) was 1.45 µM. The TGI (T-47D breast) was 7.73 µM, the GI50 (U251 CNS) was 3.2 µM and the TGI (U251 CNS) was 11.3 µM. For the same molecule, the GI50 (IGROV1 ovarian) was 1.9 µM, the TGI (IGROV1 ovarian) was 15.9 µM and the GI50 (SW-620 colon) was 2.54 µM. It also gave a TGI (SW-620 colon) of 11.1 µM, a GI50 (HOP-62 NSCLC) of 1.6 µM and a TGI (HOP-62 NSCLC) of 13.6 µM. For the same molecule, the GI50 (786-0 renal) was 2.51 µM, the TGI (786-0 renal) was 7.54 µM and the GI50 (SK-OV-3 ovarian) was 2.21 µM. For the same molecule, the TGI (SK-OV-3 ovarian) was 13.8 µM, the GI50 (NCI/ADR-RES ovarian) was 2.67 µM and the TGI (NCI/ADR-RES ovarian) was 7.92 µM. The GI50 (MCF7 breast) was 0.551 µM, the TGI (MCF7 breast) was 5.25 µM and the GI50 (A549 NSCLC) was 2.99 µM. For the same molecule, the TGI (A549 NSCLC) was 13.9 µM, the GI50 (UACC-62 melanoma) was 2.49 µM and the TGI (UACC-62 melanoma) was 10.4 µM. For the same molecule, the GI50 (SF-295 CNS) was 3.01 µM, the TGI (SF-295 CNS) was 12.8 µM and the GI50 (PC-3 prostate) was 1.78 µM. For the same molecule, the TGI (PC-3 prostate) was 8.44 µM, the GI50 (BT-549 breast) was 2 µM and the TGI (BT-549 breast) was 9.45 µM. The GI50 (NCI-H460 lung) was 2.03 µM, the TGI (NCI-H460 lung) was 8.15 µM and the GI50 (SF-539 CNS) was 3.56 µM. The TGI (SF-539 CNS) was 14.7 µM, the GI50 (SF-268 CNS) was 2.64 µM and the TGI (SF-268 CNS) was 15.1 µM. For the same molecule, the GI50 (MOLT-4 leukemia) was 2.05 µM, the TGI (MOLT-4 leukemia) was 19.5 µM and the GI50 (CCRF-CEM leukemia) was 1.45 µM. It also gave a TGI (CCRF-CEM leukemia) of 14.5 µM, a GI50 (RPMI-8226 leukemia) of 2.11 µM and a TGI (RPMI-8226 leukemia) of 7.39 µM. The GI50 (SNB-19 CNS) was 2.59 µM, the TGI (SNB-19 CNS) was 12.1 µM and the GI50 (HCT-15 colon) was 0.349 µM. It also gave a TGI (HCT-15 colon) of 6.31 µM, a GI50 (KM12 colon) of 1.69 µM and a TGI (KM12 colon) of 6.21 µM. It also gave a GI50 (RXF 393 renal) of 6.01 µM, a TGI (RXF 393 renal) of 20.8 µM and a GI50 (SN12C renal) of 3.13 µM. The TGI (SN12C renal) was 15.5 µM, the GI50 (COLO 205 colon) was 3.73 µM and the TGI (COLO 205 colon) was 15.3 µM. For the same molecule, the GI50 (DU-145 prostate) was 3.02 µM, the TGI (DU-145 prostate) was 11 µM and the GI50 (HL-60(TB) leukemia) was 1.81 µM. For the same molecule, the TGI (HL-60(TB) leukemia) was 15.8 µM, the GI50 (TK-10 renal) was 3.56 µM and the TGI (TK-10 renal) was 12.4 µM. It also gave a GI50 (SK-MEL-28 melanoma) of 4.46 µM, a TGI (SK-MEL-28 melanoma) of 21.2 µM and a GI50 (SK-MEL-2 melanoma) of 11.3 µM. The TGI (SK-MEL-2 melanoma) was 30.1 µM, the GI50 (M14 melanoma) was 2.72 µM and the TGI (M14 melanoma) was 11.6 µM. For the same molecule, the GI50 (OVCAR-3 ovarian) was 1.53 µM, the TGI (OVCAR-3 ovarian) was 4.59 µM and the GI50 (HS 578T breast) was 4.13 µM. For the same molecule, the TGI (HS 578T breast) was 31.6 µM, the GI50 (NCI-H23 lung) was 2.03 µM and the TGI (NCI-H23 lung) was 6.26 µM.
